Data taken from patent US20250351820A1, “SUPRAMOLECULAR POROUS ORGANIC FRAMEWORKS FOR STORAGE AND DELIVERY OF VOLATILE GUESTS” (KANSAS STATE UNIVERSITY RESEARCH FOUNDATION, priority 2022, published 2025).

Assay type: physicochemical
Experimental: In one approach, the HOF encapsulated guest was prepared by dissolving trimesic acid and guest in methanol a 1:8 molar ratio. The mixture was stirred at room temperature for up to 48 hours. The solution was then left undisturbed allowing for slow evaporation to take place until crystals were obtained. For particularly oily guest molecules, an additional solvent was required to dissolve trimesic acid. Successful guest uptake was confirmed by single crystal X-ray diffraction (SCXRD). Thermogravimetric analysis was used to monitor the weight loss as a function of temperature, and ^1H NMR was used to confirm the presence of both host and guest in the sample.
In order to determine to what extent a particular guest is included within the host structure, we carried out thermal gravimetric analysis (TGA) on the resulting samples. A typical TGA measurement will record the weight-loss as a function of temperature and this will allow us to estimate the relative amount of solvent/guest/host present in a particular sample. […] The host itself begins to thermally degrade at around 250° C.

- temperature at which the host begins to thermally degrade: around 250 °C
SMILES: O=C(O)c1cc(C(=O)O)cc(C(=O)O)c1 [trimesic acid]
